Data on one molecule can be found in PMC6138628, “Enhanced uptake of gH625 by blood brain barrier compared to liver in vivo: characterization of the mechanism by an in vitro model and implications for delivery” (Scientific Reports, 2018).

Where two headings read alike, the source gives them in different places. Residues, ends and D or L forms follow the SMILES beside them.

The subject of data set [1] is brain / BBB. Description: In vivo brain uptake, fluorescence microscopy of rat brain. Further details: species or system male Wistar rats. To be noted: i.v., lower doses injected. The method, then:
In vivo studies were performed in male Wistar rats housed under a 12 hours light-dark cycle with free access to food and water. The animals were allocated in five groups, each consisting of three rats. Three animal groups received a single i.v. administration of NBD-gH625 at a concentration of 10 µg, 20 µg, and 40 µg/100 g bw, respectively. Control group received vehicle while another group received gH-625 (40 µg/100 g bw). Both NBD-gH625 and gH625 were dissolved in phosphate-buffered saline. After 3.5 hours from the i.v. administration, the animals were anesthetized with Zoletil® (40 mg/100 g) and euthanized by decapitation. This study was carried out in strict accordance with recommendations in the European Guide for the Care and Use of Laboratory Animals. Every effort was made to minimize animal pain and suffering. All animal protocols were approved by the Committee on the Ethics of Animal Experiments of the University of Napoli Federico II (Italy) and the Italian Minister of Health. (Protocol number 2012/000180).
The ex-vivo fluorescence microscopy analysis was performed to evaluate the distribution of NBD-gH625 on both sides of the BBB. In order to evaluate if there is a linear relationship between slides fluorescence integrated density and the amount of the peptide, a calibration curve was obtained. In particular, increasing amounts of NBD-gH625 (0–30 µM) were spotted on microscope slides and images at 515 nm were acquired (See the Results section) and analysed as described below. Brains were removed from animals, sectioned sagittally in thick slices, washed in PBS, mounted on coverslips, stained with DAPI (4′–6 Diamidino-2-Phenylindole, Dilactate) (Invitrogen, Carlsbad, CA, USA) and analysed under Axioskop fluorescence microscope (Zeiss). Images, at least 10 field of view (800 × 700 μm each) for each experimental class, were acquired using an AxioCam MRc5 (Zeiss) with DAPI filter (λex 350 nm; λem 461 nm) and a fluorescein isothiocyanate filter (λex 488 nm; λem 515 nm).
To evaluate the distribution of NBD-gH625 on both sides of the BBB, we estimated the fluorescence inside the blood vessels (without discriminating between the amount present in the blood and that present in the endothelial cells) and outside the blood vessels in 10 images for each experimental class. In detail, to assess the NBD-gH625 that reached without crossing the BBB, we selected blood vessels as the region of interest (ROI) (inbound) and evaluated the fluorescence intensity; then, on the non-zero thresholded images, an inversion of selected ROI was carried out to obtain the complementary ROI to calculate the amounts of NBD-gH625 which crossed the BBB (outbound).
The morphology of blood vessels was easily identified and outlined; the images were calibrated by ImageJ Rodbard function; integrated density values were calculated within the outlines exclusively, to be considered as inside fluorescence. Then, the thresholded and outlined images, to exclude both blood vessels and background values, were used to calculate the integrated density as outside fluorescence.
To evaluate the effect of concentration on the systemic delivery of NBD-gH625, a fluorescence microscopy analysis was performed as previously reported.
Briefly, livers and brains were isolated and fixed for 24 hours in Bouin’s fixative (71% picric acid, 5% acetic acid, 24% formaldehyde) and embedded in paraffin wax (Carlo Erba, Milan, Italy). Tissue sections (10 μm of thickness) were incubated in 0.1% Sudan Black B dissolved in 70% ethanol for 20 minutes to reduce the tissues autofluorescence. The excess of Sudan Black B was removed by washing with Tris-buffered saline containing 0.02% Tween 20[30],[31]. Sections were stained with DAPI to counterstain nuclei, then mounted with a coverslip in glycerol/phosphate-buffered saline (1:1) and acquired using an AxioCam MRc5 with DAPI filter (λex 350 nm; λem 461 nm) and a fluorescein isothiocyanate filter (λex 488 nm; λem 515 nm). […]

For data set [2] the following is noted: outer NBD reduced with sodium dithionite. As for the experimental part: A modification of the lipid mixing experiment allowed to measure peptide-induced mixing of the inner monolayer. A concentration of 0.6% mol for each of the fluorescent probes within the liposome was used. In order to completely reduce the NBD located at the outer surface of the membrane, LUVs were treated with sodium dithionite 100 mM (from a stock solution of 1 M dithionite in 1 M TRIS, pH 10.0) for approximately 1 h on ice in the dark. Excess sodium dithionite was removed by size exclusion chromatography through a Sephadex G-75 50 DNA Grade filtration column (GE Healthcare) eluted with a buffer containing 10 mM TRIS, 100 mM NaCl, and 1 mM EDTA, pH 7.4.
In the inner monolayer assay, the fluorescence from the vesicle membranes’ outer monolayer is eliminated by the addition of an aqueous reducing agent; while in the lipid mixing experiment we measured both hemi-fusion and complete fusion, in this experiment we determined only the extent of lipid mixing between the inner monolayers.

For `CC[C@H](C)[C@H](NC(=O)[C@H](CC(C)C)NC(=O)[C@H](C)NC(=O)[C@H](CC(N)=O)NC(=O)[C@H](Cc1ccc(O)cc1)NC(=O)[C@H](Cc1c[nH]cn1)NC(=O)[C@H](C)NC(=O)[C@H](Cc1c[nH]c2ccccc12)NC(=O)[C@H](CCCNC(=N)N)NC(=O)[C@@H](NC(=O)[C@H](CC(C)C)NC(=O)[C@@H](NC(=O)[C@H](CO)NC(=O)[C@H](C)NC(=O)[C@H](CC(C)C)NC(=O)CNC(=O)[C@@H](N)Cc1c[nH]cn1)[C@@H](C)O)[C@@H](C)O)C(=O)N[C@@H](CCCNC(=N)N)C(=O)N[C@@H](C)C(=O)N[C@@H](Cc1ccccc1)C(N)=O` [gH625] (H-HGLASTLTRWAHYNALIRAF-NH2), the “Percentage of delivered peptide, brain compared to liver” value in data set [1] was “higher percentages of delivered peptide compared to the liver”. Also, the Inner monolayer fusion result in data set [2] (at a P/L ratio corresponding to 100% of fusion, BBB mimicking LUVs) is listed as “approximately 20%”; in data set [2] (at a peptide/lipid ratio with 100% of lipid mixing, liver mimicking LUVs), 100%.
